We go through two compounds from ChEMBL document CHEMBL4402608 (J Med Chem, 2020).

Some results are limits rather than exact numbers.

Series [1] addresses T1, D(2) dopamine receptor (Homo sapiens, UniProt P14416). Nature of the series: Agonist activity at human D2RL expressed in CHOK1/human U2OS cells assessed as induction of beta-arrestin recruitment at 10 uM measured after 90 mins by beta-galactosidase based PathHunter assay. It counts as cell-based. (Arrestin recruitment assays detect the binding of arrestin to an activated receptor.)

Series [2] addresses T1, D(2) dopamine receptor. Nature of the series: Agonist activity at human D2RS expressed in CHOK1/human U2OS cells assessed as induction of beta-arrestin recruitment at 10 uM measured after 90 mins by beta-galactosidase based PathHunter assay. The class given is cell-based.
For series [3], the target named is T2, D(4) dopamine receptor (Homo sapiens, UniProt P21917). Put plainly: Agonist activity at Gi/Go-coupled human D4R expressed in CHOK1 cells assessed as induction of beta-arrestin recruitment at 10 uM measured after 90 mins by beta-galactosidase based PathHunter assay. The class given is cell-based.
Series [4] deals with Atypical chemokine receptor 3 (Homo sapiens, UniProt P25106). Put plainly: Agonist activity at human PK1-tgged CXCR7 expressed in CHOK1 cells assessed as induction of beta-arrestin recruitment at 10 uM measured after 90 mins by beta-galactosidase based PathHunter assay. The class given is cell-based.
The nature of series [5]: Displacement of [3H]-Flunitrazepam from rat brain GABA(A)/BzR site measured after 90 mins by microbeta scintillation counting method. Background: In a radioligand displacement assay an active substance lowers the binding of a labelled ligand.
For series [6], the target named is T2, D(4) dopamine receptor. Put plainly: Displacement of [3H]-N-methylspiperone from recombinant human D4 receptor stably expressed in HEK cell membranes measured after 90 mins by microbeta scintillation counting method.
A short description of series [7]: Displacement of [3H]-PK11195 from rat brain GABA PBR measured after 90 mins by microbeta scintillation counting method.
The subject of series [8] is GABA(A)/BzR site. Put plainly: Displacement of [3H]-Flunitrazepam from rat brain GABA(A)/BzR site at 10 uM measured after 90 mins by microbeta scintillation counting method relative to control. The following applies: probe [3H]-Flunitrazepam.
Series [9] deals with GABA PBR. Nature of the series: Displacement of [3H]-PK11195 from rat brain GABA PBR at 10 uM measured after 90 mins by microbeta scintillation counting method relative to control. The following applies: probe [3H]-PK11195.
The target in series [10] is Beta-2 adrenergic receptor (Homo sapiens, UniProt P07550). Nature of the series: Displacement of [3H]-CGP12177 from recombinant human beta2 adrenergic receptor expressed in HEK Flp-In cell membranes at 10 uM measured after 90 mins by microbeta scintillation counting method relative to control. As to conditions: probe [3H]-CGP12177; call rule not given here.
The target of series [11] is 5-hydroxytryptamine receptor 1B (Homo sapiens, UniProt P28222).
In series [12] the target is 5-hydroxytryptamine receptor 1D (Homo sapiens, UniProt P28221).
The target in series [13] is 5-hydroxytryptamine receptor 1E (Homo sapiens, UniProt P28566).
Series [14] addresses 5-hydroxytryptamine receptor 3A (Homo sapiens, UniProt P46098).
In series [15] the target is 5-hydroxytryptamine receptor 5A (Homo sapiens, UniProt P47898).
Series [16] has as its target 5-hydroxytryptamine receptor 6 (Homo sapiens, UniProt P50406).
For series [17], the target named is T3, Alpha-1A adrenergic receptor (Homo sapiens, UniProt P35348).
T3 sequence (P35348 whole entry): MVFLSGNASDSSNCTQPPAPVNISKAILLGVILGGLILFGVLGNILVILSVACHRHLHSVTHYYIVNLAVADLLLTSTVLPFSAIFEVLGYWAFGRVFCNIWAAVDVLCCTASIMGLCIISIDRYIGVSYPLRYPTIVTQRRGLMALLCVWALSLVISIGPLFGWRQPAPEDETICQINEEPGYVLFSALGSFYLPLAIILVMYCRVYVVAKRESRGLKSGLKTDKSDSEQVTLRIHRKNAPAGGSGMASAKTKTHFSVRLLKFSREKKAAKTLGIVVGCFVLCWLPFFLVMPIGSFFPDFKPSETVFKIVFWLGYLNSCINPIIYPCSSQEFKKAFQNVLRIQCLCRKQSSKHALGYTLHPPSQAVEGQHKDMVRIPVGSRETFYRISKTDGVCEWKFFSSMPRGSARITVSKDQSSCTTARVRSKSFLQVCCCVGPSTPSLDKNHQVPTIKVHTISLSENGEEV

Series [18] deals with beta3 adrenergic receptor (Homo sapiens, UniProt P13945).
Series [19] deals with T4, Alpha-2C adrenergic receptor (Homo sapiens, UniProt P18825).
T4 sequence (P18825 whole entry): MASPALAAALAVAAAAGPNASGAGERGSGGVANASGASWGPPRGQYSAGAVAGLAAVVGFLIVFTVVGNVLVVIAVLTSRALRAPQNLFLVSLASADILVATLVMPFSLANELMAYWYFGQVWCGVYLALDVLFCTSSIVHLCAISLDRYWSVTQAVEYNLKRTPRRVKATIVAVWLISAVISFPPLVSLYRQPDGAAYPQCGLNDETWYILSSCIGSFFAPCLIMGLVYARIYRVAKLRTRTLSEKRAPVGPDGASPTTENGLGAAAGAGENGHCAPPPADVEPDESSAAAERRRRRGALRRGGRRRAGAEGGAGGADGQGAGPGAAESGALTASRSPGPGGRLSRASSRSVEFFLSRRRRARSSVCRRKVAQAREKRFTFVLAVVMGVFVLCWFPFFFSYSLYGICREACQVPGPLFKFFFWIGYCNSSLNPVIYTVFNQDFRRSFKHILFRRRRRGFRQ

Series [20] concerns the target D(1B) dopamine receptor (Homo sapiens, UniProt P21918).
The target in series [21] is Delta-type opioid receptor (Homo sapiens, UniProt P41143).
Series [22] deals with Histamine H4 receptor (Homo sapiens, UniProt Q9H3N8).
Series [23] concerns the target Muscarinic acetylcholine receptor M1 (Homo sapiens, UniProt P11229).
Series [24] concerns the target Muscarinic acetylcholine receptor M2 (Homo sapiens, UniProt P08172).
For series [25], the target named is Muscarinic acetylcholine receptor M3 (Homo sapiens, UniProt P20309).

As to `CCCN(CC[C@]1(O)C[C@H](NC(=O)c2ccc3ccccc3c2)C1)[C@H]1CCc2nc(N)sc2C1`, the outcome in series [1], in series [2], in [3] and in series [4] was Active. Besides, the results for the Ki result in series [5], in series [6] and in series [7] were “Not Active”, 0.045 µM and “Not Active”, respectively. The inhibition at […], 10 µM in series [8] and in [9] was under 50% each time.
For the compound `CCCN[C@H]1CCc2nc(N)sc2C1` [PRAMIPEXOLE], the inhibition at […], 10 µM in [10] was over 50%. The Ki in [11] is 3.51 µM; in [12], over 10 µM; in series [13], over 10 µM; in series [14], over 10 µM; in [15], over 10 µM; in [16], over 10 µM. Besides, the Ki in series [17] is over 10 µM; in series [18], over 10 µM; in [19] it was 0.0522 µM; in [20], over 10 µM; in series [21] it was over 10 µM; in series [22] it was over 10 µM. In addition, the Ki in series [23], in series [24] and in series [25] was over 10 µM each time.

A word on the Ki: it is the dissociation constant of the complex between target and ligand, obtained from inhibition or displacement. One may read the inhibition as the change of the read-out against control, counted positive when it falls.
